Literature values, collected in patent US20140348811A1, “COMPOSITIONS COMPRISING SUGAR-CYSTEINE PRODUCTS” (MAX INTERNATIONAL, LLC, priority 2011, published 2014).

Legend:
[1] = test system: irradiation-induced bowel injury; settings: mice, 1 g/kg
[2] = test system: acetaminophen hepatic and renal toxicity; settings: mice, 2 g/kg
glutathione levels = settings: mice, 8 mmol/kg i.p.
[3] = test system: mice exposed to cyclophosphamide; settings: 8 mmol/kg
[4] = healthy humans, orally 8-10 g per day
ATP levels = settings: dogs subjected to ischemia, about 3 g/day for at least 5 days
[5] = administered directly to humans, wide dosage ranges

Compound | protection against irradiation-induced bowel injury [1] | protection against acetaminophen hepatic and renal toxicity [2] | increased glutathione levels, heart (glutathione levels; heart) [times] | increased glutathione levels, muscle tissue (glutathione levels; muscle tissue) [times] | delivery of protective amounts of cysteine [3] | exercise capacity [4] | ATP levels (ATP levels) | toxicity [5]
O=C(O)[C@@H]1CSC(C(O)C(O)C(O)CO)N1 (stereo partly drawn) [RibCys, 2(R,S)-D-ribo-(1′,2′,3′,4′-tetrahydroxybutyl)thiazolidine-4(R)-carboxylic acid] | protect mice against irradiation-induced bowel injury | protect mice against acetaminophen hepatic and renal toxicity | 1.5 | 2.5 | deliver effective protective amounts of cysteine | – | – | –
O=C[C@H](O)[C@H](O)[C@H](O)CO [ribose] | – | – | – | – | – | increase exercise capacity | effectively restored and maintained ATP levels | essentially non-toxic
